In US20240208992A1, “MACROCYCLES AS CFTR MODULATORS” (Idorsia Pharmaceuticals Ltd, priority 2021, published 2024):

Target: human F508del-CFTR (Homo sapiens, UniProt P13569, DEL508-508)
Test: F508del-CFTR cell surface expression (corrector activity), DiscoveRx ß-galactosidase complementation chemiluminescence assay in recombinant U2OS cell line;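 also: U2OS cells co-expressing ProLink-tagged F508del-CFTR and a membrane-anchored enzyme acceptor, where more surface CFTR restores β-galactosidase activity measured by chemiluminescence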
Conditions: U2OS cells, 16h compound incubation; for EC50: geomean of several measurements; for Emax: in relation to the Emax of the corrector lumacaftor (=100%), arithmetic mean
[1] = EC50, F508del-CFTR cell surface expression

Sequence of human F508del-CFTR (P13569 with tags, fused parts or gaps DEL508-508): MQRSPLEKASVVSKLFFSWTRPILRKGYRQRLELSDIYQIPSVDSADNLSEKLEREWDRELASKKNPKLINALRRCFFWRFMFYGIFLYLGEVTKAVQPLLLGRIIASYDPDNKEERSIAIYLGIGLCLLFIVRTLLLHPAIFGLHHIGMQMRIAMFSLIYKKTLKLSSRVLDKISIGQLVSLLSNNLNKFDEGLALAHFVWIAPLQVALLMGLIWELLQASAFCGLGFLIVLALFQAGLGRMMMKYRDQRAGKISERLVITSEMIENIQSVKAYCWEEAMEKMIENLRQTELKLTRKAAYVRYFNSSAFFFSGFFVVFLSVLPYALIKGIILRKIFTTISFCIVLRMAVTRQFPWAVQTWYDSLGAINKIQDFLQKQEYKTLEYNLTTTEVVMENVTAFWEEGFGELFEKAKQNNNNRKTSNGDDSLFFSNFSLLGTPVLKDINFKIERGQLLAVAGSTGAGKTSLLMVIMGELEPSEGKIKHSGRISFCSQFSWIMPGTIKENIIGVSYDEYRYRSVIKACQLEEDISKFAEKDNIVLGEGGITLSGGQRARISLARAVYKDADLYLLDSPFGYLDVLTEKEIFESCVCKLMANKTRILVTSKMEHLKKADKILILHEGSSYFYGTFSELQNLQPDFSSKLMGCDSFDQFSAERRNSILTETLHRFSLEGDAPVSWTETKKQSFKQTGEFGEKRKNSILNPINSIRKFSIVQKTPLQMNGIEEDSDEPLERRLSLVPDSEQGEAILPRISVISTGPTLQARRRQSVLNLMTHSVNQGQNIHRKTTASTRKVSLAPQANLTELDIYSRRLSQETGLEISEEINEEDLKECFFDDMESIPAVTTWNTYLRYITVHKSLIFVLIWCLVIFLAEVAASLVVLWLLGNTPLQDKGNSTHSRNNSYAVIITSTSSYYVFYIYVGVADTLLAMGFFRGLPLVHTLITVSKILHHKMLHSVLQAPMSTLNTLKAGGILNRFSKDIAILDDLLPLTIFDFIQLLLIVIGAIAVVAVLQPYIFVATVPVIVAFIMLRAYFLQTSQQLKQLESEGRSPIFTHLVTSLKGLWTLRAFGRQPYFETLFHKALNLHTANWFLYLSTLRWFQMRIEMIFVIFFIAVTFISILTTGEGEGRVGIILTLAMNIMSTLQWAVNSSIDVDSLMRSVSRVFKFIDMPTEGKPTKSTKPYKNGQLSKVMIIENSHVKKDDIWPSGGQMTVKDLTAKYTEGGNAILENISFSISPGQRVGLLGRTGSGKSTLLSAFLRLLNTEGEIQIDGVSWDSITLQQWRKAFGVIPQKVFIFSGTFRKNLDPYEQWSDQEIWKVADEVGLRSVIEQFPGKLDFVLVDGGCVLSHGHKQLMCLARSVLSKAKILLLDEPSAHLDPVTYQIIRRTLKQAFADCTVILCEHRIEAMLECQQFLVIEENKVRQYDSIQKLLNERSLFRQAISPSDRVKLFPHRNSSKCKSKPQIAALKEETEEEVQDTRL

SMILES | EC50 (F508del-CFTR cell surface expression) [nM] | Emax [%] | EC50 [1] [nM] | Emax (U2OS) [%]
CC(C)C[C@H]1C(=O)N(C)[C@@H](Cc2nc(-c3ccc(F)cn3)no2)C(=O)N[C@H](Cc2ccccc2)COc2cnc3ccc(F)cc3c2C(=O)N[C@H](C(=O)NCCc2noc(C3CC3)n2)CC(=O)N1C [Example 814, (3S,7S,10S,13R)-13-benzyl-N-(2-(5-cyclopropyl-1,2,4-oxadiazol-3-yl)ethyl)-20-fluoro-10-((3-(5-fluoropyridin-2-yl)-1,2,4-oxadiazol-5-yl)methyl)-7-isobutyl-6,9-dimethyl-1,5,8,11-tetraoxo-1,2,3,4,5,6,7,8,9,10,11,12,13,14-tetradecahydro-[1]oxa[4,7,10,14]tetraazacycloheptadecino[17,16-c]quinoline-3-carboxamide] | 631 | 242 | – | –
COc1cc(CCNC(=O)[C@@H]2CC(=O)N(C)[C@@H](CC(C)C)C(=O)N(C)[C@H](Cc3nc(-c4ccc(F)cn4)no3)C(=O)N[C@H](Cc3ccccc3)COc3cnc4ccc(F)cc4c3C(=O)N2)on1 [Example 815, (3S,7S,10R,13R)-13-benzyl-20-fluoro-10-((3-(5-fluoropyridin-2-yl)-1,2,4-oxadiazol-5-yl)methyl)-7-isobutyl-N-(2-(3-methoxyisoxazol-5-yl)ethyl)-6,9-dimethyl-1,5,8,11-tetraoxo-1,2,3,4,5,6,7,8,9,10,11,12,13,14-tetradecahydro-[1]oxa[4,7,10,14]tetraazacycloheptadecino[17,16-c]quinoline-3-carboxamide] | – | – | 128 | 413
COc1cc(CCNC(=O)[C@@H]2CC(=O)N(C)[C@@H](CC(C)C)C(=O)N(C)[C@@H](Cc3nc(-c4ccc(F)cn4)no3)C(=O)N[C@H](Cc3ccccc3)COc3cnc4ccc(F)cc4c3C(=O)N2)on1 [Example 816, (3S,7S,10S,13R)-13-benzyl-20-fluoro-10-((3-(5-fluoropyridin-2-yl)-1,2,4-oxadiazol-5-yl)methyl)-7-isobutyl-N-(2-(3-methoxyisoxazol-5-yl)ethyl)-6,9-dimethyl-1,5,8,11-tetraoxo-1,2,3,4,5,6,7,8,9,10,11,12,13,14-tetradecahydro-[1]oxa[4,7,10,14]tetraazacycloheptadecino[17,16-c]quinoline-3-carboxamide] | – | – | 741 | 286
CC(C)C[C@H]1C(=O)N(C)C2(CC2)C(=O)N[C@H](Cc2ccccc2)COc2ccc3ncc(F)cc3c2C(=O)N[C@H](C(=O)NCCn2nnc(C3CC3)n2)CC(=O)N1C [Example 817, (3′S,7′S,13′R)-13′-benzyl-N-(2-(5-cyclopropyl-2H-tetrazol-2-yl)ethyl)-20′-fluoro-7′-isobutyl-6′,9′-dimethyl-1′,5′,8′,11′-tetraoxo-2′,3′,4′,5′,6′,7′,8′,9′,11′,12′,13′,14′-dodecahydro-1′H-spiro[cyclopropane-1,10′-[1]oxa[4,7,10,14]tetraazacycloheptadecino[16,17-f]quinoline]-3′-carboxamide] | – | – | 420 | 375
COc1cc(CCNC(=O)[C@@H]2CC(=O)N(C)[C@@H](CC(C)C)C(=O)N(C)C3(CC3)C(=O)N[C@H](Cc3ccccc3)COc3ccc4ncc(F)cc4c3C(=O)N2)on1 [Example 818, (3′S,7′S,13′R)-13′-benzyl-20′-fluoro-7′-isobutyl-N-(2-(3-methoxyisoxazol-5-yl)ethyl)-6′,9′-dimethyl-1′,5′,8′,11′-tetraoxo-2′,3′,4′,5′,6′,7′,8′,9′,11′,12′,13′,14′-dodecahydro-1′H-spiro[cyclopropane-1,10′-[1]oxa[4,7,10,14]tetraazacycloheptadecino[16,17-f]quinoline]-3′-carboxamide] | – | – | 385 | 359
COc1cc(CCNC(=O)[C@@H]2CC(=O)N(C)[C@@H](CC(C)C)C(=O)N(C)[C@H](CC(F)F)C(=O)N[C@H](Cc3ccccc3)COc3ccc4ncc(F)cc4c3C(=O)N2)on1 [Example 819, (3S,7S,10R,13R)-13-benzyl-10-(2,2-difluoroethyl)-20-fluoro-7-isobutyl-N-(2-(3-methoxyisoxazol-5-yl)ethyl)-6,9-dimethyl-1,5,8,11-tetraoxo-1,2,3,4,5,6,7,8,9,10,11,12,13,14-tetradecahydro-[1]oxa[4,7,10,14]tetraazacycloheptadecino[16,17-f]quinoline-3-carboxamide] | – | – | 276 | 431
COc1nc(C)cc2c1C(=O)N[C@H](C(=O)NCCc1noc(C3CC3)n1)CC(=O)N(C)[C@@H](CC(C)C)C(=O)N(C)[C@H](Cc1nc(C(F)(F)F)no1)C(=O)N[C@H](Cc1ccccc1)CO2 [Example 820, (3R,6R,9S,13S)-3-benzyl-N-(2-(5-cyclopropyl-1,2,4-oxadiazol-3-yl)ethyl)-9-isobutyl-16-methoxy-7,10,18-trimethyl-5,8,11,15-tetraoxo-6-((3-(trifluoromethyl)-1,2,4-oxadiazol-5-yl)methyl)-2,3,4,5,6,7,8,9,10,11,12,13,14,15-tetradecahydropyrido[3,4-p][1]oxa[4,7,10,14]tetraazacycloheptadecine-13-carboxamide] | – | – | 49 | 461
COc1noc(CCNC(=O)[C@@H]2CC(=O)N(C)[C@@H](CC(C)C)C(=O)N3CCCC[C@@H]3C(=O)N[C@H](Cc3ccccc3)COc3ccc4ncc(F)cc4c3C(=O)N2)n1 [Example 821, (9S,13S,19aR,22R)-22-benzyl-5-fluoro-13-isobutyl-N-(2-(3-methoxy-1,2,4-oxadiazol-5-yl)ethyl)-12-methyl-7,11,14,20-tetraoxo-7,8,9,10,11,12,13,14,17,18,19,19a,20,21,22,23-hexadecahydro-16H-pyrido[2′,1′:6,7][1]oxa[4,7,10,14]tetraazacycloheptadecino[16,17-f]quinoline-9-carboxamide] | – | – | 200 | 392
COc1cc(CCNC(=O)[C@@H]2CC(=O)N(C)[C@@H](CC(C)C)C(=O)N3CCCC[C@@H]3C(=O)N[C@H](Cc3ccccc3)COc3cc(C)c4ncccc4c3C(=O)N2)on1 [Example 822, (9S,13S,19aR,22R)-22-benzyl-13-isobutyl-N-(2-(3-methoxyisoxazol-5-yl)ethyl)-2,12-dimethyl-7,11,14,20-tetraoxo-7,8,9,10,11,12,13,14,17,18,19,19a,20,21,22,23-hexadecahydro-16H-pyrido[2′,1′:6,7][1]oxa[4,7,10,14]tetraazacycloheptadecino[16,17-f]quinoline-9-carboxamide] | – | – | 131 | 363
Cc1cc2c3c(ccc2cn1)OC[C@@H](Cc1ccccc1)NC(=O)[C@H]1CCCCN1C(=O)[C@H](CC(C)C)N(C)C(=O)C[C@@H](C(=O)NCCn1nnc(C2CC2)n1)NC3=O [Example 823, (9S,13S,19aR,22R)-22-benzyl-N-(2-(5-cyclopropyl-2H-tetrazol-2-yl)ethyl)-13-isobutyl-5,12-dimethyl-7,11,14,20-tetraoxo-7,8,9,10,11,12,13,14,17,18,19,19a,20,21,22,23-hexadecahydro-16H-pyrido[2′,1′:6,7][1]oxa[4,7,10,14]tetraazacycloheptadecino[16,17-f]isoquinoline-9-carboxamide] | – | – | 241 | 366
Cc1cc2c3c(ccc2cn1)OC[C@@H](Cc1ccccc1)NC(=O)[C@@H](C)N(C)C(=O)[C@H](CC(C)C)N(C)C(=O)C[C@@H](C(=O)NCCc1cc(C)no1)NC3=O [Example 824, (3S,7S,10R,13R)-13-benzyl-7-isobutyl-6,9,10,20-tetramethyl-N-(2-(3-methylisoxazol-5-yl)ethyl)-1,5,8,11-tetraoxo-1,2,3,4,5,6,7,8,9,10,11,12,13,14-tetradecahydro-[1]oxa[4,7,10,14]tetraazacycloheptadecino[16,17-f]isoquinoline-3-carboxamide] | – | – | 674 | 354
COc1cc(CCNC(=O)[C@@H]2CC(=O)N(C)[C@@H](CC(C)C)C(=O)N(C)[C@H](C)C(=O)N[C@H](Cc3ccccc3)COc3ccc4cnc(C)cc4c3C(=O)N2)on1 [Example 825, (3S,7S,10R,13R)-13-benzyl-7-isobutyl-N-(2-(3-methoxyisoxazol-5-yl)ethyl)-6,9,10,20-tetramethyl-1,5,8,11-tetraoxo-1,2,3,4,5,6,7,8,9,10,11,12,13,14-tetradecahydro-[1]oxa[4,7,10,14]tetraazacycloheptadecino[16,17-f]isoquinoline-3-carboxamide] | – | – | 353 | 388
Cc1cc2c3c(ccc2cn1)OC[C@@H](Cc1ccccc1)NC(=O)[C@@H](C)N(C)C(=O)[C@H](CC(C)C)N(C)C(=O)C[C@@H](C(=O)NCCc1nc(C2CC2)no1)NC3=O [Example 826, (3S,7S,10R,13R)-13-benzyl-N-(2-(3-cyclopropyl-1,2,4-oxadiazol-5-yl)ethyl)-7-isobutyl-6,9,10,20-tetramethyl-1,5,8,11-tetraoxo-1,2,3,4,5,6,7,8,9,10,11,12,13,14-tetradecahydro-[1]oxa[4,7,10,14]tetraazacycloheptadecino[16,17-f]isoquinoline-3-carboxamide] | – | – | 283 | 340
COc1cc(CCNC(=O)[C@@H]2CC(=O)N(C)[C@@H](CC(C)C)C(=O)N(C)[C@H](CN3CCC(F)(F)C3)C(=O)N[C@H](Cc3ccccc3)COc3cnc4ccc(F)cc4c3C(=O)N2)on1 [Example 827, (3S,7S,10R,13R)-13-benzyl-10-((3,3-difluoropyrrolidin-1-yl)methyl)-20-fluoro-7-isobutyl-N-(2-(3-methoxyisoxazol-5-yl)ethyl)-6,9-dimethyl-1,5,8,11-tetraoxo-1,2,3,4,5,6,7,8,9,10,11,12,13,14-tetradecahydro-[1]oxa[4,7,10,14]tetraazacycloheptadecino[17,16-c]quinoline-3-carboxamide] | – | – | 54 | 379
